# Results reported in patent US8859588B2, “Substituted N-heteroaryl bipyrrolidine carboxamides, preparation and therapeutic use thereof” (SANOFI, priority 2010, dated 2014).
# Target: T1, rhesus (Macacca Mulatta) H3 receptor (Macaca mulatta, UniProt Q865E1)
# T1 construct: rhesus monkey (Macacca Mulatta) 445 amino acid H3 receptor; (Genbank #AY231164); expressed in transfected cells; host or cells: Flp-In T-REx 293 Cell Line (Invitrogen), pcDNA5/FRT/TO vector, induced with tetracycline; membrane preparation
# Assay: Rhesus H3 radioligand binding assay ([3H]-Methylhistamine displacement, WGA SPA)
# Set-up: species or system rhesus monkey (Macacca Mulatta)
# Details: [3H]-Methylhistamine 2 nM; rhesus H3 membranes from Flp-In T-REx 293 cells; 25° C., 1 hour; Ki by Cheng-Prusoff equation
# Procedure: Rhesus H3 membranes were prepared from the Flp-In T-REx 293 Cell Line (Invitrogen) stably transfected with pcDNA5/FRT/TO (Invitrogen) containing the rhesus monkey (Macacca Mulatta) 445 amino acid H3 receptor. (Genbank #AY231164). Stably transfected cultures were amplified in tissue culture flasks by standard tissue culture methods and induced to express rhesus H3 by exposure to 500 ng/ml tetracycline (Cellgro) for 24 hours. After induction, cells were dissociated from flasks utilizing Cell Stripper (Cellgro). Cells were centrifuged (1K×g, 5 min) and pellet frozen in an ethanol-dry ice bath to disrupt cell membranes. Frozen cell pellet was re-suspended in 5 mM HEPES (pH 7.4, Invitrogen) at 10 ml/1000 cm2 of harvested cells. The cell suspension was drawn through an 18 gauge needle (2-3×) followed by a 23 gauge needle (2-3×) to further disrupt cell membranes. The cell suspension was centrifuged (40K×g, 30 min). Cell membrane pellet was re-suspended in 5 mM HEPES (pH 7.4, Invitrogen) at a final protein concentration of 10 mg/ml. Rhesus H3 membranes were stored under liquid nitrogen prior to use in [3H]-Methylhistamine and GTPγS radioligand binding assays.
# Rhesus H3 radioligand binding assay was performed using rhesus H3 receptor membranes (prepared as described above), [3H]-Methylhistamine (Perkin Elmer) and WGA SPA beads (wheat germ agglutinin scintillation proximity assay) beads (Amersham). The assay was performed in 96-well Opti-Plates (Packard). Each reaction contained 50 μl rhesus H3 membranes (20-30 μg total protein), 50 μl WGA SPA beads (0.1 μg) and 50 μl of 83 Ci/mmol [^3H]-Methylhistamine (final concentration 2 nM) and 50 μl of tested compound. The compounds of this invention and/or vehicle were diluted with binding buffer from 10 mM DMSO stocks. Assay plates were sealed with TopSeal (Perkin Elmer) and mixed on shaker (25° C., 1 hour). Assay plates were read on TopCount scintillation counter (Packard). Results were analyzed by Hill transformation and Ki values were determined by Cheng-Prusoff equation.
# T1 sequence (Q865E1 1-445): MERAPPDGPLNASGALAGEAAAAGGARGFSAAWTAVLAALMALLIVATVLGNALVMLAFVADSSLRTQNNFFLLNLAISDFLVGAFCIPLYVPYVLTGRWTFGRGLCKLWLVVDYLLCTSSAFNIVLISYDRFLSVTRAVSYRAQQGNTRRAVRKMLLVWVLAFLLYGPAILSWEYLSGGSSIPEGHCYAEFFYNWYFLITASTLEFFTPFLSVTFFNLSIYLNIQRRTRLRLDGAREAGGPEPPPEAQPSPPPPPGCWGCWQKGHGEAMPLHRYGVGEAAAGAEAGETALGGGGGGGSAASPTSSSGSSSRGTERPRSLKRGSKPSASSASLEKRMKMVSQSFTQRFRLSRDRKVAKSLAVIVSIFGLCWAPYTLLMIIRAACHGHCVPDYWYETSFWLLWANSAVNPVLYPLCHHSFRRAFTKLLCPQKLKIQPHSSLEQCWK
row,SMILES,Ki [nM]
1,"C[C@H]1CCCN1[C@H]1CCN(c2ccc(NC(=O)C3CCOCC3)nc2)C1 [Example 2, Tetrahydro-pyran-4-carboxylic acid [5-((2S,3′S)-2-methyl-[1,3′]bipyrrolidinyl-1′-yl)-pyridin-2-yl]-amide]",27
2,"Cc1nc(N2CC[C@H](N3CCC[C@@H]3C)C2)ccc1NS(=O)(=O)C1CCCCC1 [Example 5, Cyclohexanesulfonic acid [2-methyl-6-((2S,3′S)-2-methyl-[1,3′]bipyrrolidinyl-1′-yl)-pyridin-3-yl]-amide]",26.3
3,"Cc1nc(N2CC[C@H](N3CCC[C@@H]3C)C2)ccc1NC(=O)c1ccccc1 [Example 7, N-[2-Methyl-6-((2S,3′S)-2-methyl-[1,3′]bipyrrolidinyl-1′-yl)-pyridin-3-yl]-benzamide]",8.09
4,"Cc1ccc(F)cc1C(=O)Nc1ccc(N2CC[C@@H](N3CCC[C@@H]3C)C2)nc1C [Example 9, 5-Fluoro-2-methyl-N-[2-methyl-6-((2S,3′R)-2-methyl-[1,3′]bipyrrolidinyl-1′-yl)-pyridin-3-yl]-benzamide]",195
5,"Cc1nc(N2CC[C@@H](N3CCC[C@@H]3C)C2)ccc1NC(=O)c1cccs1 [Example 10, Thiophene-2-carboxylic acid [2-methyl-6-((2S,3′R)-2-methyl-[1,3′]bipyrrolidinyl-1′-yl)-pyridin-3-yl]-amide]",36
6,"Cc1nc(N2CC[C@@H](N3CCC[C@@H]3C)C2)ccc1NC(=O)c1c(C)noc1C [Example 11, 3,5-Dimethyl-isoxazole-4-carboxylic acid [2-methyl-6-((2S,3′R)-2-methyl-[1,3′]bipyrrolidinyl-1′-yl)-pyridin-3-yl]-amide]",84
7,"Cc1nc(N2CC[C@@H](N3CCC[C@@H]3C)C2)ccc1NS(=O)(=O)c1ccc(F)cc1 [Example 12, 4-Fluoro-N-[2-methyl-6-((2S,3′R)-2-methyl-[1,3′]bipyrrolidinyl-1′-yl)-pyridin-3-yl]-benzenesulfonamide]",29.6
8,"Cc1nc(N2CC[C@@H](N3CCC[C@@H]3C)C2)ccc1NS(=O)(=O)C1CC1 [Example 13, Cyclopropanesulfonic acid [2-methyl-6-((2S,3′R)-2-methyl-[1,3′]bipyrrolidinyl-1′-yl)-pyridin-3-yl]-amide]",37.1

# Stronger by Ki, values ahead:
row,Ki [nM],SMILES
1,4.9,"Cc1nc(N2CC[C@H](N3CCC[C@@H]3C)C2)ccc1NC(=O)Cc1ccccc1 [Example 4, N-[2-Methyl-6-((2S,3′S)-2-methyl-[1,3′]bipyrrolidinyl-1′-yl)-pyridin-3-yl]-2-phenyl-acetamide]"
2,4.24,"Cc1nc(N2CC[C@H](N3CCC[C@@H]3C)C2)ccc1NC(=O)c1cccc2ccccc12 [Example 3, Naphthalene-1-carboxylic acid [2-methyl-6-((2S,3′S)-2-methyl-[1,3′]bipyrrolidinyl-1′-yl)-pyridin-3-yl]-amide]"
3,2.51,"Cc1nc(N2CC[C@H](N3CCC[C@@H]3C)C2)ccc1NS(=O)(=O)c1ccc(F)c(F)c1 [Example 6, 3,4-Difluoro-N-[2-methyl-6-((2S,3′S)-2-methyl-[1,3′]bipyrrolidinyl-1′-yl)-pyridin-3-yl]-benzenesulfonamide]"
4,2.46,"CC(=O)N1CCC(C(=O)Nc2ccc(N3CC[C@@H](N4CCC[C@@H]4C)C3)nc2C)CC1 [Example 8, 1-Acetyl-piperidine-4-carboxylic acid [2-methyl-6-((2S,3R)-2-methyl-[1,3′]bipyrrolidinyl-1′-yl)-pyridin-3-yl]-amide]"
5,2.4,"Cc1nc(N2CC[C@H](N3CCC[C@@H]3C)C2)ccc1NC(=O)C1CCOCC1 [Example 1, Tetrahydro-pyran-4-carboxylic acid [2-methyl-6-((2S,3′S)-2-methyl-[1,3′]bipyrrolidinyl-1′-yl)-pyridin-3-yl]-amide]"
